Calls of active or inactive are those of the source. The calls are words filed in the database; no cut-off is given here.
Key:
Homo sapiens = organism: Homo sapiens; test: Inhibition of GSNOR (unknown origin) at 1 uM in presence of NADH incubated for 10 mins by microplate reader analysis relative to control
[1] = Inhibition of GSNOR (unknown origin) in presence of NADH incubated for 10 mins by microplate reader analysis; parameters: species or system Homo sapiens
[2] = Inhibition of GSNOR (unknown origin); parameters: species or system Homo sapiens
CYP1A2 = biological target: T1, CYP1A2 (Homo sapiens, UniProt P05177); test: Inhibition of human CYP1A2 in human liver microsome at 10 uM relative to control; assay type: ADME; settings: human liver microsomes
T1 sequence (P05177 whole entry): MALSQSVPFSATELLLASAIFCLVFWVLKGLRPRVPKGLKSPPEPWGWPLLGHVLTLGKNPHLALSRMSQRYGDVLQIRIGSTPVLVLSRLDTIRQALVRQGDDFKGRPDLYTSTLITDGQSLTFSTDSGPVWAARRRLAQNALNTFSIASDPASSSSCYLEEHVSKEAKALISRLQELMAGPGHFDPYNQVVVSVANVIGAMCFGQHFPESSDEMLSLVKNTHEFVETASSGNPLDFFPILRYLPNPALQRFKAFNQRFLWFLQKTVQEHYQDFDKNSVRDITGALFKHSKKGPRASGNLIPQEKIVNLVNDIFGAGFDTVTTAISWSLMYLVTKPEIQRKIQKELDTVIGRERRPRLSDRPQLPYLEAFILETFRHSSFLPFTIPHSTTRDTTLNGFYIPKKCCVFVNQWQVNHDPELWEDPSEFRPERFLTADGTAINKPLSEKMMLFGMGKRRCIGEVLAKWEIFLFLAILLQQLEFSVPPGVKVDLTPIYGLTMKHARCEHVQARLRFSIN

CYP2C9 = CYP2C9 (Homo sapiens, UniProt P11712); test: Inhibition of human CYP2C9 in human liver microsome at 10 uM relative to control; assay type: ADME; settings: human liver microsomes
CYP2C9, sequence (P11712 whole entry): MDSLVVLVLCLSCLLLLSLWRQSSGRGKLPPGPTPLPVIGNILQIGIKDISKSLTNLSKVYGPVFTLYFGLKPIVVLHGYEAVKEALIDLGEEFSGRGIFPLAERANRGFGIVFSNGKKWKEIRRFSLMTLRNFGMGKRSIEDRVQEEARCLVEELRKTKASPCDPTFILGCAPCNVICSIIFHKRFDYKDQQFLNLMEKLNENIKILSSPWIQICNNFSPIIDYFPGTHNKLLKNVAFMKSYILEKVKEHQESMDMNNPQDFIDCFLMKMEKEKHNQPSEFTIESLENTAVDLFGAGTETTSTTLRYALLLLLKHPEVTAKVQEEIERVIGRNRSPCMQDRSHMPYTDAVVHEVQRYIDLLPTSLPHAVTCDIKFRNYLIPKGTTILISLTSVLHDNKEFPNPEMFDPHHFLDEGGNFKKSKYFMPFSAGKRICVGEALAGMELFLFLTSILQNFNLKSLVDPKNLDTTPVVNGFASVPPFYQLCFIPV

CYP2C19 = CYP2C19 (Homo sapiens, UniProt P33261); test: Inhibition of human CYP2C19 in human liver microsome at 10 uM relative to control; assay type: ADME; settings: human liver microsomes
CYP2C19, sequence (P33261 whole entry): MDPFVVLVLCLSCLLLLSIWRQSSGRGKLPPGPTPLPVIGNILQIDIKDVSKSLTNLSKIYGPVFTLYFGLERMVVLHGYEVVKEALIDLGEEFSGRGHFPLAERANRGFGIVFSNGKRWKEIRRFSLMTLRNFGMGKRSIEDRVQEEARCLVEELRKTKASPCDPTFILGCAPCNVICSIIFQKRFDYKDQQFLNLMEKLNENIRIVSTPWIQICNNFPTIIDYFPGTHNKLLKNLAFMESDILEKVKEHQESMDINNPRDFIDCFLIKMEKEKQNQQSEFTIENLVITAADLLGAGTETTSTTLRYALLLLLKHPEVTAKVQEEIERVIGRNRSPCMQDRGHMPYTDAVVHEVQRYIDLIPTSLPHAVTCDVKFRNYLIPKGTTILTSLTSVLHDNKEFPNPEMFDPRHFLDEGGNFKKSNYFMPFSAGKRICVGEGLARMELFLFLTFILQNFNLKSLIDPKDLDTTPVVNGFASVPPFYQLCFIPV

CYP2D6 = CYP2D6 (Homo sapiens, UniProt P10635); test: Inhibition of human CYP2D6 in human liver microsome at 10 uM relative to control; assay type: ADME; settings: human liver microsomes
CYP2D6, sequence (P10635 whole entry): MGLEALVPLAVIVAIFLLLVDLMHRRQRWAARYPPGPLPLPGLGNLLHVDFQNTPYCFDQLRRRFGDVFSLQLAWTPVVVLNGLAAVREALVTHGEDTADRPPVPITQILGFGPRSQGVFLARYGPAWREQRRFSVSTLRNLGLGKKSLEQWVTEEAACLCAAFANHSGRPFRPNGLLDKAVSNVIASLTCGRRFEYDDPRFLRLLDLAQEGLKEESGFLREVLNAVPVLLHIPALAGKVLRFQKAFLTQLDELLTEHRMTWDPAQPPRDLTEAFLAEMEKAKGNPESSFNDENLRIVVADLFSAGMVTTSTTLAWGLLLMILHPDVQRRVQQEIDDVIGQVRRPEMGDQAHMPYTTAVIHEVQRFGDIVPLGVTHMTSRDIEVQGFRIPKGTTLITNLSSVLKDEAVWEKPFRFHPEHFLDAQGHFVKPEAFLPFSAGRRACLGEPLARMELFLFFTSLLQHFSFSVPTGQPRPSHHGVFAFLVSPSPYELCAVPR

CYP3A4 = CYP3A4 (Homo sapiens, UniProt P08684); test: Inhibition of human CYP3A4 in human liver microsome at 10 uM relative to control; assay type: ADME; settings: human liver microsomes
CYP3A4, sequence (P08684 whole entry): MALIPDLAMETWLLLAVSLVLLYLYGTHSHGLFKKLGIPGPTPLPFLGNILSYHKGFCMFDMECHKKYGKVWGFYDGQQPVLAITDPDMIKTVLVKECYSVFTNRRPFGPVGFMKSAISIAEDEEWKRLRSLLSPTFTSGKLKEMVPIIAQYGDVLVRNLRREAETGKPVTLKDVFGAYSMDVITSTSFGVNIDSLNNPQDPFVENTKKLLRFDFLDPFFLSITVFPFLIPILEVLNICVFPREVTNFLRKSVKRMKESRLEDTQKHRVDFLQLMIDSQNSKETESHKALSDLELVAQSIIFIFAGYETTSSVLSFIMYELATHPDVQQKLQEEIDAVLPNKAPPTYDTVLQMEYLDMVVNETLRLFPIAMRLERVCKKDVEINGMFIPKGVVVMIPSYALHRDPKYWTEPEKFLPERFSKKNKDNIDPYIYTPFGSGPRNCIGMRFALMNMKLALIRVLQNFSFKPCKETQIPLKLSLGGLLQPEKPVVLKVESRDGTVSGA

SH-SY5Y [3] = test: Cytotoxicity against human SH-SY5Y cells up to 40 uM incubated for 24 hrs by CCK-8 assay; assay type: functional, cell-based
SH-SY5Y [4] = test: Neuroprotective activity against OGD/R-induced human […] cell injury model assessed as increase in cell viability at 10 uM measured for 24 hrs by CCK-8 assay; assay type: functional, cell-based
[5] = Oral bioavailability in male C57BL/6 mouse at 10 mg/kg by LC-MS/MS analysis; assay type: ADME, organism-based; settings: in vivo
[6] = Half life in Sprague-Dawley rat at 10 mg/kg, iv by LC-MS/MS analysis; assay type: ADME, organism-based; settings: in vivo
[7] = Tmax in Sprague-Dawley rat at 10 mg/kg, iv by LC-MS/MS analysis; assay type: ADME, organism-based; settings: in vivo
[8] = Cmax in Sprague-Dawley rat at 10 mg/kg, iv by LC-MS/MS analysis; assay type: ADME, organism-based; settings: in vivo
[9] = AUC (0 to t) in Sprague-Dawley rat at 10 mg/kg, iv by LC-MS/MS analysis; assay type: ADME, organism-based; settings: in vivo
[10] = MRT (0 to t) in Sprague-Dawley rat at 10 mg/kg, iv by LC-MS/MS analysis; assay type: ADME, organism-based; settings: in vivo
[11] = Clearance in Sprague-Dawley rat at 10 mg/kg, iv by LC-MS/MS analysis; assay type: ADME, organism-based; settings: in vivo

Structure (SMILES)	inhibition (Homo sapiens)	IC50 [1]	also measured
Cc1cc(C(N)=O)ccc1-n1c(-c2ccc(-c3cn(C)nc3C(F)(F)F)cc2)cc2ccc(C(=O)O)cc21	0.93%	–	–
Cc1cc(C(N)=O)ccc1-n1c(-c2ccc(N3CCOCC3)cc2)cc2ccc(C(=O)O)cc21	-0.76%	–	–
N#Cc1cccc(Cn2c(-c3ccc(-n4ccnc4)cc3)cc3ccc(C(=O)O)cc32)c1	84.4%	102 nM	–
Cc1cc(C(N)=O)ccc1-n1c(-c2ccc(O)cc2)cc2ccc(C(=O)O)cc21	33.7%	–	–
O=C(O)c1ccc2cc(-c3ccc(-n4ccnc4)cc3)n(Cc3ccc(F)cc3)c2c1	–	–	IC50 [2]: 649 nM
NC(=O)c1ccc(-n2c(-c3ccc(-n4ccnc4)cc3)cc3ccc(C(=O)O)cc32)cc1Cl	93.3%	51.1 nM	–
Cc1cc(C(N)=O)ccc1-n1c(-c2ccc(-c3cccnc3)cc2)cc2ccc(C(=O)O)cc21	22.2%	–	–
NC(=O)c1ccc(-n2c(-c3ccc(-n4ccnc4)cc3)cc3ccc(C(=O)O)cc32)cc1O	97%	60.3 nM	–
NC(=O)c1ccc(-n2c(-c3ccc(-n4ccnc4)cc3)cc3ccc(C(=O)O)cc32)cc1	81.7%	312 nM	–

The next lines start with results.

inhibition (Homo sapiens)	IC50 [1]	Structure (SMILES)	also measured
88.9%	–	N#Cc1ccc(Cn2c(-c3ccc(-n4ccnc4)cc3)cc3ccc(C(=O)O)cc32)cc1F	–
3.84%	–	NC(=O)c1cccc(Cn2c(-c3ccc(-n4ccnc4)cc3)cc3ccc(C(=O)O)cc32)c1	–
95.1%	44.1 nM	CCOc1cc(-n2c(-c3ccc(-n4ccnc4)cc3)cc3ccc(C(=O)O)cc32)ccc1C(N)=O	inhibition at 10 µM (CYP1A2): 16.6%; inhibition at 10 µM (CYP2C9): 75%; inhibition at 10 µM (CYP2C19): 70.1%; inhibition at 10 µM (CYP2D6): 59.2%; inhibition at 10 µM (CYP3A4): 81.5%; Activity (SH-SY5Y [3]): Active; Activity (SH-SY5Y [4]): Active; bioavailability [5]: 6.64%; half-life [6]: 51 min; Tmax [7]: 19.8 min; Cmax [8]: 2930 ng/mL; AUC(0-t) [9]: 3510 ng·h/mL; MRT last [10]: 63 min; clearance [11]: 48.5 mL/min/kg
14.8%	–	Cc1cc(C(N)=O)ccc1-n1c(-c2ccc(NS(N)(=O)=O)cc2)cc2ccc(C(=O)O)cc21	–
12.5%	–	Cc1cc(C(N)=O)ccc1-n1c(-c2ccc(-c3ccncc3)cc2)cc2ccc(C(=O)O)cc21	–
2.44%	–	Cc1cc(C(N)=O)ccc1-n1c(-c2ccc(-c3cn(C)nc3C)cc2)cc2ccc(C(=O)O)cc21	–
76.6%	–	NC(=O)c1ccc(-n2c(-c3ccc(-n4ccnc4)cc3)cc3ccc(C(=O)O)cc32)cc1Br	–
35.1%	54.6 nM	N#Cc1ccc(Cn2c(-c3ccc(-n4ccnc4)cc3)cc3ccc(C(=O)O)cc32)cc1	–
60.7%	–	NC(=O)c1ccc(-n2c(-c3ccc(-n4ccnc4)cc3)cc3ccc(C(=O)O)cc32)cn1	–
